Data on two molecules can be found in patent publication US20210403485A1, “PYRAZOLOPYRIMIDINE DERIVATIVE AS SELECTIVE TRK INHIBITOR” (SHANDONG LUYE PHARMACEUTICAL CO., LTD., priority 2018, published 2021).

Bounds are passed on as bounds.

The target of data set [1] is T1, Ros1 (Homo sapiens, UniProt P08922).
T1 construct: purchased Reaction Biology Corp
The data set can be described thus: Kinase inhibitory activity (33P-ATP, filtration-binding method, Reaction Biology Corp.). To be noted: read-out: Half maximal inhibitory concentration IC50 for kinases, Ros1. In kind it is biochemical. The method, then:
(§1) The mixture was incubated at room temperature for 20 minutes, added with ^33P-ATP at a certain concentration to start the reaction, and then incubated at room temperature for 120 minutes. Finally, the radioactivity of the reactant was detected by the filtration-binding method. The final kinase activity was expressed as the ratio of the remaining kinase activity in the test sample to the kinase activity of the DMSO control. The dose-response curves were fitted and IC50 values were calculated by GraphPad software.

For data set [2], the target named is T2, TrkC (Homo sapiens, UniProt Q16288).
T2 construct: purchased Reaction Biology Corp
T2 sequence (Q16288 32-839): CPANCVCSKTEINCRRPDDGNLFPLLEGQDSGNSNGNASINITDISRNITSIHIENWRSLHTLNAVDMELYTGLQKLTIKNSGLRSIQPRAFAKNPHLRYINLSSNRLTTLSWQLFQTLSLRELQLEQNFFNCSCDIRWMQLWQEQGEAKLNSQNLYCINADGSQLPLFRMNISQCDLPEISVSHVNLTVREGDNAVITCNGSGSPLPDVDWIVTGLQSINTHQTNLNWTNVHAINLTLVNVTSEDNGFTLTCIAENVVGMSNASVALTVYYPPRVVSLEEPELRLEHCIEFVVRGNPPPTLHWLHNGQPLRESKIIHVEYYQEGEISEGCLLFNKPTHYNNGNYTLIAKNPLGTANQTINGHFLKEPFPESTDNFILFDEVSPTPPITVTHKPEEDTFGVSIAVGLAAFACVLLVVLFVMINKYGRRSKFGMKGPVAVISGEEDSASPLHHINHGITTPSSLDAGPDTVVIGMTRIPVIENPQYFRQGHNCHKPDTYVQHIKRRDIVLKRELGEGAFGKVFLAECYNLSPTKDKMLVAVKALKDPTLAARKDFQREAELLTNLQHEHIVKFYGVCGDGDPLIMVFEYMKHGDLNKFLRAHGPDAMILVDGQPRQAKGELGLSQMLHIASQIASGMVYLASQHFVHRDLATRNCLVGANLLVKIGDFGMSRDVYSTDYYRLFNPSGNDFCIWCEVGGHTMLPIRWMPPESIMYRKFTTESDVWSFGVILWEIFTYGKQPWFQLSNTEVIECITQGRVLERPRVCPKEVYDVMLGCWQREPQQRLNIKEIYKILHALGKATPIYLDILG
Described as above. Conditions: read-out: Half maximal inhibitory concentration IC50 for kinases, TrkC. In kind it is biochemical. How it is done: as §1

Data set [3] has as its target T3, TrkA (Homo sapiens, UniProt P04629).
T3 construct: purchased Reaction Biology Corp
Described as above. To be noted: read-out: Half maximal inhibitory concentration IC50 for kinases, TrkA. In kind it is biochemical. The method, then: as §1

In data set [4] the target is T4, ALK (Homo sapiens, UniProt Q9UM73).
T4 construct: purchased Reaction Biology Corp
Described as above. Format: biochemical. Conditions: read-out: Half maximal inhibitory concentration IC50 for kinases, ALK. How it is done: as §1

Data set [5] has as its target T5, TrkA-G667C (Homo sapiens, UniProt P04629, G667C).
T5 construct: purchased Reaction Biology Corp
Described as above. To be noted: read-out: Half maximal inhibitory concentration IC50 for kinases, TrkA-G667C. Format: biochemical. The method, then:
as §1

For data set [6], the target named is T6, TrkA-G595R (Homo sapiens, UniProt P04629, G595R).
T6 construct: purchased Reaction Biology Corp
The description is as above. In kind it is biochemical. Conditions: read-out: Half maximal inhibitory concentration IC50 for kinases, TrkA-G595R. The method, then: as §1

The target of data set [7] is T7, BaF3 ETV6-NTRK3-G623R (Homo sapiens, UniProt Q16288, G623R, cells depend on it).
T7 construct: fused on or other part: N-terminal part of ETV6 (TEL) as fusion partner (part of the key); P41212 (Transcription factor ETV6)
T7 sequence (Q16288 whole entry G623R, the tested form may be a part): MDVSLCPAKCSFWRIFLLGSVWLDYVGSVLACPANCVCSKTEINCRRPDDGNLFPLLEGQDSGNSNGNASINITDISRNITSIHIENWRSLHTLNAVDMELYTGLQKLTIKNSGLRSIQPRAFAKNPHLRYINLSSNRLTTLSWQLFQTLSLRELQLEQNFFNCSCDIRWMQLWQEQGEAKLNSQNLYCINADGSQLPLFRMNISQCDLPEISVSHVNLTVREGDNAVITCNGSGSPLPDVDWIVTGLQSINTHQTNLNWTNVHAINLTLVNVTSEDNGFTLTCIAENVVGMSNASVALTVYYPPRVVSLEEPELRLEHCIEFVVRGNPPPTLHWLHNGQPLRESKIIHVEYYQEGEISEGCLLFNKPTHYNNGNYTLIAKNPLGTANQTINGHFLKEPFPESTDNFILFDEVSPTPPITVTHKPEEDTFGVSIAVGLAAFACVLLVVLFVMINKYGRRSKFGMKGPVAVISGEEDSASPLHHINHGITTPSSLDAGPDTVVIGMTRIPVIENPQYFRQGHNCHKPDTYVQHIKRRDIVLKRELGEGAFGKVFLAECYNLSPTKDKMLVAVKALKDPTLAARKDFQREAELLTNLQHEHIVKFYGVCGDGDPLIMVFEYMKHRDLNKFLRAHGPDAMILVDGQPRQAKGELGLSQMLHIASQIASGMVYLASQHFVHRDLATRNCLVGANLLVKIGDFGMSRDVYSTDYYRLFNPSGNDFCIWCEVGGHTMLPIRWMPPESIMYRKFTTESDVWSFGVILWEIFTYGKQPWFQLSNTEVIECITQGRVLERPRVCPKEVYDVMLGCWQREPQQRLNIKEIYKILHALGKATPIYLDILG
The data set is described as follows: Inhibitory activity against cell proliferation (CellTiter-Glo, 72 hours). Format: cell-based. To be noted: read-out: Half maximal inhibitory concentration IC50 of cells, BaF3 ETV6-NTRK3-G623R. The method, then: (§2) Adenosine Triphosphate (ATP) is an energy carrier commonly used in various life activities in nature, and is the minimum unit for energy storage and transfer. The CellTiter-Glo™ cell viability assay kit uses luciferase as an assay agent, which requires the involvement of ATP in luminescence. The CellTiter-Glo™ reagent is added into cell culture medium to measure the luminescence value. The luminescence signal is directly proportional to the amount of ATP in the system, and the ATP is positively correlated with the number of viable cells. Therefore, the proliferation of cells can be detected by detecting the ATP content using the CellTiter-Glo kit. In this test, the cell lines used are Ba/F3 LMNA-NTRK1-WT, Ba/F3 LMNA-NTRK1-F589L, BaF3 LMNA-NTRK1-G595R, BaF3 LMNA-NTRK1-G667A, BaF3 ETV6-NTRK3-WT, BaF3 ETV6-NTRK3-G623R, and Ba/F3 SLC34A2-ROS1-WT stable cell strains, 5000 cells/well.
(§3) a) Cells in the logarithmic growth phase were collected and counted using a […]. The cell viability was detected by the trypan blue exclusion method, and the cell viability was kept over 90%.
(§4) b) The cell concentration was adjusted; 90 μL of the cell suspension was added to a 96-well plate.
c) Cells in the 96-well plate were incubated overnight at 37° C. with 5% CO2 and 95% humidity.
(§5) a) A 10-fold compound solution was prepared, with the highest concentration being 10 μM (a total of 9 concentrations, 3-fold dilution). 10 μL of compound solution was added to each well of a 96-well plate inoculated with cells, and three duplicate wells were set for each compound concentration.
b) The cells in the 96-well plate added with compound were incubated for 72 hours at 37° C. with 5% CO2 and 95% humidity, followed by the CTG (CellTiter-Glo) analysis.
(§6) a) The CTG reagent was thawed and the cell plate was equilibrated to room temperature for 30 minutes.
(§7) b) An equal volume of CTG solution was added to each well.
(§8) c) The plate was shaken on an orbital shaker for 5 minutes to lyse the cells.
(§9) d) The cell plate was placed at room temperature for 20 minutes to stabilize the luminescence signal.
(§10) e) The luminescence value was read.
(§11) The data were analyzed using GraphPad Prism 5.0 software, fitted with nonlinear S-curve regression to give dose-response curves, and IC50 values were calculated therefrom.
Background: ATP-based viability assays read luminescence as a measure of living cells.

The target in data set [8] is T8, BaF3 ETV6-NTRK3-WT (Homo sapiens, UniProt Q16288).
T8 construct: fused on or other part: N-terminal part of ETV6 (TEL) as fusion partner (part of the key); P41212 (Transcription factor ETV6)
T8 sequence (Q16288 whole entry, change not shown, the tested form may be a part): as the sequence (Q16288 whole entry G623R, the tested form may be a part) above, with R623G counted along it
The description is as above. Format: cell-based. To be noted: read-out: Half maximal inhibitory concentration IC50 of cells, BaF3 ETV6-NTRK3-WT. How it is done:
as §2, with “kit.” for “kit. In this test, the cell lines used are Ba/F3 LMNA-NTRK1-WT, Ba/F3 LMNA-NTRK1-F589L, BaF3 LMNA-NTRK1-G595R, BaF3 LMNA-NTRK1-G667A, BaF3 ETV6-NTRK3-WT, BaF3 ETV6-NTRK3-G623R, and Ba/F3 SLC34A2-ROS1-WT stable cell strains, 5000 cells/well.”
as §3, §4, §5, §6, §7, §8, §9, §10, §11

The target of data set [9] is T9, Ba/F3 SLC34A2-ROS1-WT (Homo sapiens, UniProt P08922).
T9 construct: fused on or other part: N-terminal part of SLC34A2 as fusion partner (part of the key); O95436 (Sodium-dependent phosphate transport protein 2B)
The description is as above. In kind it is cell-based. Conditions: read-out: Half maximal inhibitory concentration IC50 of cells, Ba/F3 SLC34A2-ROS1-WT. How it is done:
as §2, with “kit.” for “kit. In this test, the cell lines used are Ba/F3 LMNA-NTRK1-WT, Ba/F3 LMNA-NTRK1-F589L, BaF3 LMNA-NTRK1-G595R, BaF3 LMNA-NTRK1-G667A, BaF3 ETV6-NTRK3-WT, BaF3 ETV6-NTRK3-G623R, and Ba/F3 SLC34A2-ROS1-WT stable cell strains, 5000 cells/well.”
as §3, §4, §5, §6, §7, §8, §9, §10, §11

In data set [10] the target is T10, Ba/F3 LMNA-NTRK1-F589L (Homo sapiens, UniProt P04629, F589L, cells depend on it).
T10 construct: fused on or other part: N-terminal part of LMNA as fusion partner (part of the key); P02545 (Prelamin-A/C)
T10 sequence (P04629 whole entry F589L, the tested form may be a part): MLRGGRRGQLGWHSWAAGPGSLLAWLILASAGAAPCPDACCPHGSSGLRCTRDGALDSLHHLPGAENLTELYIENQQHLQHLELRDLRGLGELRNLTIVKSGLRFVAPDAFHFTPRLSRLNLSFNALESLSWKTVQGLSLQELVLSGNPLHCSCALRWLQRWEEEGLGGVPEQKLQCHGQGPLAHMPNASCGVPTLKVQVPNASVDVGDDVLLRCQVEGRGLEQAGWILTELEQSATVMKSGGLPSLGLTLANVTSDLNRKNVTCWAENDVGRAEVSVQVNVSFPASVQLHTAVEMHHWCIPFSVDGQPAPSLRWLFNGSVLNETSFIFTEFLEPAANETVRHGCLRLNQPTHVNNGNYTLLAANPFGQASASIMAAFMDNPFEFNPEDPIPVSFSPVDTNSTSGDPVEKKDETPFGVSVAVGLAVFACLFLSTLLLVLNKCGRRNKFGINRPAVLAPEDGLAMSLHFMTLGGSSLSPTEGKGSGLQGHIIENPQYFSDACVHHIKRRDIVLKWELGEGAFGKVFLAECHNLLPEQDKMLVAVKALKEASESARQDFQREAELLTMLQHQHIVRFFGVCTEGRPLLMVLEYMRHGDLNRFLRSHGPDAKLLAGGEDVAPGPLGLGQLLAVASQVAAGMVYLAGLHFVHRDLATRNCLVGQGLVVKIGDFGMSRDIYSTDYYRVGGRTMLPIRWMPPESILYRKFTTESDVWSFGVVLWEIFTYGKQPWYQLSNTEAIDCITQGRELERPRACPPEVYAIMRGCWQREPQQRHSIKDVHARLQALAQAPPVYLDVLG
The description is as above. Format: cell-based. To be noted: read-out: Half maximal inhibitory concentration IC50 of cells, Ba/F3 LMNA-NTRK1-F589L. How it is done:
as §2, with “kit.” for “kit. In this test, the cell lines used are Ba/F3 LMNA-NTRK1-WT, Ba/F3 LMNA-NTRK1-F589L, BaF3 LMNA-NTRK1-G595R, BaF3 LMNA-NTRK1-G667A, BaF3 ETV6-NTRK3-WT, BaF3 ETV6-NTRK3-G623R, and Ba/F3 SLC34A2-ROS1-WT stable cell strains, 5000 cells/well.”
as §3, §4, §5, §6, §7, §8, §9, §10, §11

In data set [11] the target is T11, BaF3 LMNA-NTRK1-G595R (Homo sapiens, UniProt P04629, G595R, cells depend on it).
T11 construct: fused on or other part: N-terminal part of LMNA as fusion partner (part of the key); P02545 (Prelamin-A/C)
T11 sequence (P04629 whole entry G595R, the tested form may be a part): as the sequence (P04629 whole entry F589L, the tested form may be a part) above, with L589F, G595R counted along it
The description is as above. In kind it is cell-based. To be noted: read-out: Half maximal inhibitory concentration IC50 of cells, BaF3 LMNA-NTRK1-G595R. The method, then: as §2, with “kit.” for “kit. In this test, the cell lines used are Ba/F3 LMNA-NTRK1-WT, Ba/F3 LMNA-NTRK1-F589L, BaF3 LMNA-NTRK1-G595R, BaF3 LMNA-NTRK1-G667A, BaF3 ETV6-NTRK3-WT, BaF3 ETV6-NTRK3-G623R, and Ba/F3 SLC34A2-ROS1-WT stable cell strains, 5000 cells/well.”
as §3, §4, §5, §6, §7, §8, §9, §10, §11

The target of data set [12] is T12, Ba/F3 LMNA-NTRK1-WT (Homo sapiens, UniProt P04629).
T12 construct: fused on or other part: N-terminal part of LMNA as fusion partner (part of the key); P02545 (Prelamin-A/C)
The description is as above. To be noted: read-out: Half maximal inhibitory concentration IC50 of cells, Ba/F3 LMNA-NTRK1-WT. Format: cell-based. The method, then:
as §2, with “kit.” for “kit. In this test, the cell lines used are Ba/F3 LMNA-NTRK1-WT, Ba/F3 LMNA-NTRK1-F589L, BaF3 LMNA-NTRK1-G595R, BaF3 LMNA-NTRK1-G667A, BaF3 ETV6-NTRK3-WT, BaF3 ETV6-NTRK3-G623R, and Ba/F3 SLC34A2-ROS1-WT stable cell strains, 5000 cells/well.”
as §3, §4, §5, §6, §7, §8, §9, §10, §11

In data set [13] the target is T13, BaF3 LMNA-NTRK1-G667A (Homo sapiens, UniProt P04629, G667A, cells depend on it).
T13 construct: fused on or other part: N-terminal part of LMNA as fusion partner (part of the key); P02545 (Prelamin-A/C)
The description is as above. Conditions: read-out: Half maximal inhibitory concentration IC50 of cells, BaF3 LMNA-NTRK1-G667A. In kind it is cell-based. How it is done:
as §2, with “kit.” for “kit. In this test, the cell lines used are Ba/F3 LMNA-NTRK1-WT, Ba/F3 LMNA-NTRK1-F589L, BaF3 LMNA-NTRK1-G595R, BaF3 LMNA-NTRK1-G667A, BaF3 ETV6-NTRK3-WT, BaF3 ETV6-NTRK3-G623R, and Ba/F3 SLC34A2-ROS1-WT stable cell strains, 5000 cells/well.”
as §3, §4, §5, §6, §7, §8, §9, §10, §11

Data set [14] is described as follows: Pharmacokinetic test of compounds in rats (plasma, LC/MS/MS). Conditions: for Cmax: read-out: Peak concentration Cmax. In kind it is in vivo, male SD rats. The method, then: Experimental purpose: male SD rats aged 7-9 weeks were selected as test animals, and the drug concentrations of the compounds in plasma at different time points after single intravenous injection (IV) and intragastric administration (PO) of the compounds were measured by an LC/MS/MS method, so that the pharmacokinetic behavior of the compounds disclosed herein in rats was studied, and the pharmacokinetic characteristic of the compounds was evaluated.
Drug preparation: the compounds were all prepared into clear solution by taking 5% DMSO+10% solutol+85% water as vehicle, and were used for administration in IV and PO groups. The dose of each compound administered was: IV, 3 mg/kg; PO, 10 mg/kg.

T5 sequence (P04629 33-796 G667C): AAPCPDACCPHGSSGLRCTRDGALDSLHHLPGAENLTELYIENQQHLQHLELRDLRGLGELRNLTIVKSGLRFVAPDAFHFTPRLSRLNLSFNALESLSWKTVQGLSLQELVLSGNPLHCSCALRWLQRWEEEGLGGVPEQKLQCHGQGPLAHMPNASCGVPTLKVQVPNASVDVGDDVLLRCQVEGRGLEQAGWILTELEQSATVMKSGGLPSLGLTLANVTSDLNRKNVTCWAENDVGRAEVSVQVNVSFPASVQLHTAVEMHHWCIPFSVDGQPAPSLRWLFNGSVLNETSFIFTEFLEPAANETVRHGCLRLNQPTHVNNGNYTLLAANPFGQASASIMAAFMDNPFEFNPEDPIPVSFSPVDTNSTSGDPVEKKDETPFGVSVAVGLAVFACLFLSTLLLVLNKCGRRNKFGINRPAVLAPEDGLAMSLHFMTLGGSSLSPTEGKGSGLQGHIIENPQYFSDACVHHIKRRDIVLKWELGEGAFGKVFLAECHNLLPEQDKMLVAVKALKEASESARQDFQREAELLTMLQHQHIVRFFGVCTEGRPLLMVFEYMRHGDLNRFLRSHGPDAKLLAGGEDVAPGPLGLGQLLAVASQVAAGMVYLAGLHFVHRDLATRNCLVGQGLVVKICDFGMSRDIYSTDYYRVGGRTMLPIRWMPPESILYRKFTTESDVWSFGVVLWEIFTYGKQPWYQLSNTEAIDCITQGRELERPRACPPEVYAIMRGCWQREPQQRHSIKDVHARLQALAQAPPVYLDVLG

As for `C[C@@H]1COC[C@@H]2c3cc(F)cnc3O[C@@H](C)CNC(=O)c3cnn4ccc(nc34)N12` [WX008], the IC50 was 12.8 nM in [1]; 0.1 nM in data set [2]; 0.7 nM in [3]; more than 1000 nM in data set [4]; 0.1 nM in data set [5]; 0.2 nM in data set [6]. Further, the GI50 in data set [7] is 8.6 nM; in data set [8] it was 1.8 nM; in data set [9], more than 1000 nM; in [10], 204 nM; in data set [11] it was 5 nM; in [12], 1.6 nM. Besides, in [13], the GI50 came to 2 nM. The “Apparent clearance Cl” value in [14] (IV, 3 mg/kg) stood at 44.0 mL/min/kg. Also, in [14] (IV, 3 mg/kg), the “Apparent volume of distribution Vd” value is 1.4 L/kg. Also, the “Area under the curve AUC0-last” value was found to be 2.748 µM·h in [14] (IV, 3 mg/kg) and 2.282 µM·h in [14] (PO, 10 mg/kg). The “Half-life T1/2” value in [14] (IV, 3 mg/kg) is 30 min. In addition, the “Bioavailability F %” value in [14] (PO, 10 mg/kg) worked out at 25%. Besides, the “Time to peak Tmax” value in [14] (PO, 10 mg/kg) is 30 min. Also, in data set [14] (PO, 10 mg/kg), the Cmax came out at 1130 nM.
Turning to `O=C1NC2(CC2)COc2ncc(F)cc2[C@H]2CCOCCN2c2ccn3ncc1c3n2` [WX009A], the IC50 stood at 0.1 nM in [1]; 0.1 nM in data set [2]; 1.8 nM in data set [3]; 51.3 nM in [4]; 2.9 nM in [5]; 0.9 nM in data set [6]. Moreover, the GI50 in data set [7] is 12.9 nM; in [8] it was 2.2 nM; in data set [9] it was 50 nM; in data set [10], 15.8 nM; in data set [11], 7.4 nM; in [12], 1 nM. In data set [13], the GI50 was determined as 7.3 nM. For the same molecule, the “Apparent clearance Cl” value in data set [14] (IV, 3 mg/kg) amounted to 19.0 mL/min/kg. The “Apparent volume of distribution Vd” value in [14] (IV, 3 mg/kg) was 1.3 L/kg. For the same molecule, the “Area under the curve AUC0-last” value in [14] (IV, 3 mg/kg) is 6.19 µM·h; in data set [14] (PO, 10 mg/kg) it was 9.696 µM·h. The “Half-life T1/2” value in data set [14] (IV, 3 mg/kg) is 54 min. The “Bioavailability F %” value in data set [14] (PO, 10 mg/kg) turned out to be 49%. For the same molecule, the “Time to peak Tmax” value in data set [14] (PO, 10 mg/kg) amounted to 78 min. Further, the Cmax in data set [14] (PO, 10 mg/kg) came to 2630 nM.
